In article PMC11830721 (Frontiers in Pharmacology, 2025):

Experiments:
Assay type in all cases: biochemical
EPHA4 = EPHA4 (Homo sapiens, UniProt P54764); experiment: SelectScreen kinase selectivity assay; conditions: ten-dose 0.25–128 μM
Procedure: (§1) Following the standardized kinase activity assay protocol as previously reported, we utilized the SelectScreen Kinase Profiling Service (Thermo Fisher Scientific) to determine the kinase selectivity profile of FLIN-4 ([van der Wel et al., 2020]). Through a ten-dose dilution series ranging from 0.25 μM to 128 μM in dose-response experiments, we precisely measured the inhibitory effect of FLIN-4 on the substrate phosphorylation reactions catalyzed by a panel of kinases, and thus ascertained the half-maximal inhibitory concentrations (IC50) for each kinase.

DDR2 = DDR2 (Homo sapiens, UniProt Q16832); experiment: SelectScreen kinase selectivity assay; conditions: ten-dose 0.25–128 μM
Procedure: as §1

MUSK = MUSK (Homo sapiens, UniProt O15146); experiment: SelectScreen kinase selectivity assay; conditions: ten-dose 0.25–128 μM
Procedure: as §1

CSF1R = CSF1R (Homo sapiens, UniProt P07333); experiment: SelectScreen kinase selectivity assay; conditions: ten-dose 0.25–128 μM
Procedure: as §1

ROS1 = ROS1 (Homo sapiens, UniProt P08922); experiment: SelectScreen kinase selectivity assay; conditions: ten-dose 0.25–128 μM
Procedure: as §1

YES1 = YES1 (Homo sapiens, UniProt P07947); experiment: SelectScreen kinase selectivity assay; conditions: ten-dose 0.25–128 μM
Procedure: as §1

KIT = KIT (Homo sapiens, UniProt P10721); experiment: SelectScreen kinase selectivity assay; conditions: ten-dose 0.25–128 μM
Procedure: as §1

LYN = LYN (Homo sapiens, UniProt P07948); experiment: SelectScreen kinase selectivity assay; conditions: ten-dose 0.25–128 μM
Sequence of LYN (P07948 whole entry): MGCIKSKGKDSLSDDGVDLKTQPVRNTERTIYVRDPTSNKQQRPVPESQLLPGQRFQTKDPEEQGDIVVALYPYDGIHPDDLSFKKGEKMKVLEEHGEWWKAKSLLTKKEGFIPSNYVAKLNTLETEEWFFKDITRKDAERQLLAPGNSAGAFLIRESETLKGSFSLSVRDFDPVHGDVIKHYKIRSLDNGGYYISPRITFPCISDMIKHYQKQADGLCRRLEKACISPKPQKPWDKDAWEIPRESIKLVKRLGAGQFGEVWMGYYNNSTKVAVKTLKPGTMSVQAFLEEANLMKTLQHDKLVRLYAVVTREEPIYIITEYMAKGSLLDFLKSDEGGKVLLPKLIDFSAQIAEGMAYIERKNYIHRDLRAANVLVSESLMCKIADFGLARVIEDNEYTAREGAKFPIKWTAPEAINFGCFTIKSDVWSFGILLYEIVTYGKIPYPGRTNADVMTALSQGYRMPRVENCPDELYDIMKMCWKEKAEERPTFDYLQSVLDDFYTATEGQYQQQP
Procedure: as §1

FGFR1 = FGFR1 (Homo sapiens, UniProt P11362); experiment: SelectScreen kinase selectivity assay; conditions: ten-dose 0.25–128 μM
Procedure: as §1

HCK = HCK (Homo sapiens, UniProt P08631); experiment: SelectScreen kinase selectivity assay; conditions: ten-dose 0.25–128 μM
Procedure: as §1

ZAK = ZAK (Homo sapiens, UniProt Q9NYL2); experiment: SelectScreen kinase selectivity assay; conditions: ten-dose 0.25–128 μM
Sequence of ZAK (Q9NYL2 whole entry): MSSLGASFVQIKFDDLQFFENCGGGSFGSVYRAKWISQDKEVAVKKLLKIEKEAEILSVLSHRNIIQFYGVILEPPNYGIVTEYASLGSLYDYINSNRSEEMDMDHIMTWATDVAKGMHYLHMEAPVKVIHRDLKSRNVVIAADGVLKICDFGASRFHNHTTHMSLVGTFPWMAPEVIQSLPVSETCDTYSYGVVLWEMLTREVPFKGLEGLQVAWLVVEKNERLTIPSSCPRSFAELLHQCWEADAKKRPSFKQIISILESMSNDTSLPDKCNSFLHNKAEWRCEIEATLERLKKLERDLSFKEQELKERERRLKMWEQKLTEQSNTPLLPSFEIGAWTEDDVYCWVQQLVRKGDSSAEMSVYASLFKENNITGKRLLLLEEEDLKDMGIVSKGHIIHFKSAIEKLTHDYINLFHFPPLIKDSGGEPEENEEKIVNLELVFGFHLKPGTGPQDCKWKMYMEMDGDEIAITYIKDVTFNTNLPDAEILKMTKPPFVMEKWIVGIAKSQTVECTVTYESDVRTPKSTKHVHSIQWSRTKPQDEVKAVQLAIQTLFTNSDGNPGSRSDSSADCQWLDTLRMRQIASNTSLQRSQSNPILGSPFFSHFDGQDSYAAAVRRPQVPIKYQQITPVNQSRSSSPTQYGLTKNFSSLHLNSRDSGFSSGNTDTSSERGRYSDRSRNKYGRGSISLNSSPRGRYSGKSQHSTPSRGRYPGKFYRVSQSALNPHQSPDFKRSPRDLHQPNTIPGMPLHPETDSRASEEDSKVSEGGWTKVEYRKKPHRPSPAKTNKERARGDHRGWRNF
Procedure: as §1

PTK2 = PTK2 (Homo sapiens, UniProt Q05397); experiment: SelectScreen kinase selectivity assay; conditions: ten-dose 0.25–128 μM
Procedure: as §1

EPHB1 = EPHB1 (Homo sapiens, UniProt P54762); experiment: SelectScreen kinase selectivity assay; conditions: ten-dose 0.25–128 μM
Procedure: as §1

FRK = FRK (Homo sapiens, UniProt P42685); experiment: SelectScreen kinase selectivity assay; conditions: ten-dose 0.25–128 μM
Procedure: as §1

EPHB3 = EPHB3 (Homo sapiens, UniProt P54753); experiment: SelectScreen kinase selectivity assay; conditions: ten-dose 0.25–128 μM
Procedure: as §1

NTRK2 = NTRK2 (Homo sapiens, UniProt Q16620); experiment: SelectScreen kinase selectivity assay; conditions: ten-dose 0.25–128 μM
Procedure: as §1

EPHA5 = EPHA5 (Homo sapiens, UniProt P54756); experiment: SelectScreen kinase selectivity assay; conditions: ten-dose 0.25–128 μM
Procedure: as §1

EPHA2 = EPHA2 (Homo sapiens, UniProt P29317); experiment: SelectScreen kinase selectivity assay; conditions: ten-dose 0.25–128 μM
Procedure: as §1

ABL2 = ABL2 (Homo sapiens, UniProt P42684); experiment: SelectScreen kinase selectivity assay; conditions: ten-dose 0.25–128 μM
Procedure: as §1

FYN = FYN (Homo sapiens, UniProt P06241); experiment: SelectScreen kinase selectivity assay; conditions: ten-dose 0.25–128 μM
Procedure: as §1

NTRK1 = NTRK1 (Homo sapiens, UniProt P04629); experiment: SelectScreen kinase selectivity assay; conditions: ten-dose 0.25–128 μM
Sequence of NTRK1 (P04629 33-796): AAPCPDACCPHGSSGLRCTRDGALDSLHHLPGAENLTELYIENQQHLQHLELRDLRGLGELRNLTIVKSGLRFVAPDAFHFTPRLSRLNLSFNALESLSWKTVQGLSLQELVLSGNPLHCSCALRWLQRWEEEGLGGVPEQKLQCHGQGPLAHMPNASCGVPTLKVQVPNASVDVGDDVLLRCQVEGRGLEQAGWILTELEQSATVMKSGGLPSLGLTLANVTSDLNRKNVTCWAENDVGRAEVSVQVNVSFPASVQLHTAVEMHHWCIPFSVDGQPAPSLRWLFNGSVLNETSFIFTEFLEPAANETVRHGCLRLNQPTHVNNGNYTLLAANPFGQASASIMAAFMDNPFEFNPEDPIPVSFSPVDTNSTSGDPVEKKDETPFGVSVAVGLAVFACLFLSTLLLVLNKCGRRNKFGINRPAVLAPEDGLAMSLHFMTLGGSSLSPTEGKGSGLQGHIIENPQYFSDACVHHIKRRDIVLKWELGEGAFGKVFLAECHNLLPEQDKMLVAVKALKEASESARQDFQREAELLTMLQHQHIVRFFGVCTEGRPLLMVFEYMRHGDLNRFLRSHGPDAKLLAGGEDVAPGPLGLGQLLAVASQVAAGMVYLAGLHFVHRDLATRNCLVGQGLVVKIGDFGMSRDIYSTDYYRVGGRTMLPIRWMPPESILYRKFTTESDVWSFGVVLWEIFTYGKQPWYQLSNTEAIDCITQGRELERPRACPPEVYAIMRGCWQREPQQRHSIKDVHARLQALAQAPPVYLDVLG
Procedure: as §1

PDGFRA = PDGFRA (Homo sapiens, UniProt P16234); experiment: SelectScreen kinase selectivity assay; conditions: ten-dose 0.25–128 μM
Sequence of PDGFRA (P16234 24-1089): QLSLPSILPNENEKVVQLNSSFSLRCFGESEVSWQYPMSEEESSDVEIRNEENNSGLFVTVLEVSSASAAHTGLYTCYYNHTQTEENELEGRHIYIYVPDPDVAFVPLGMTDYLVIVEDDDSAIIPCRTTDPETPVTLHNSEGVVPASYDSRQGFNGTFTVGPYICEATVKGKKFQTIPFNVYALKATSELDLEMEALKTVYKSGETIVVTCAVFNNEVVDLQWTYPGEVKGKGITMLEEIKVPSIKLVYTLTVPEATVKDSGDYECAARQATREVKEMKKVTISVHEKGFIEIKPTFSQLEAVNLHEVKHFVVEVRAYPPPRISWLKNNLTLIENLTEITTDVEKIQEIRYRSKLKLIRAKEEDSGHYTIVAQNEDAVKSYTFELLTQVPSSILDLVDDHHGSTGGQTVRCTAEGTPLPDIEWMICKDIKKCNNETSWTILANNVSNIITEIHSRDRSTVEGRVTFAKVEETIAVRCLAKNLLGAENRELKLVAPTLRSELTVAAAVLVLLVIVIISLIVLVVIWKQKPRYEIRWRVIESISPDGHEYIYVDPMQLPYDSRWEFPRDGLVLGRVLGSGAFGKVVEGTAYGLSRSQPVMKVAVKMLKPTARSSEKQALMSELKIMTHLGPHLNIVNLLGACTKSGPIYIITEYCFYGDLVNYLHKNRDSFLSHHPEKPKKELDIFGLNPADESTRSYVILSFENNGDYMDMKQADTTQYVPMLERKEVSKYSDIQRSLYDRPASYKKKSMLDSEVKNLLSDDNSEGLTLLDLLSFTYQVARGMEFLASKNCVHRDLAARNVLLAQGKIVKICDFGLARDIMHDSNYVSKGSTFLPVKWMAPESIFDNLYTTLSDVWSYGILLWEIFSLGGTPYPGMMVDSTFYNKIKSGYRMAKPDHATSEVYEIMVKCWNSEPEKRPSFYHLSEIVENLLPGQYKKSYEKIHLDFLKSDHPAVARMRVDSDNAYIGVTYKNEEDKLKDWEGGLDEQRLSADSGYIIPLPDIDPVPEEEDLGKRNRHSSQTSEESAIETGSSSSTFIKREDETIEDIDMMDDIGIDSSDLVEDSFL
Procedure: as §1

EPHA8 = EPHA8 (Homo sapiens, UniProt P29322); experiment: SelectScreen kinase selectivity assay; conditions: ten-dose 0.25–128 μM
Procedure: as §1

IGF1R = IGF1R (Homo sapiens, UniProt P08069); experiment: SelectScreen kinase selectivity assay; conditions: ten-dose 0.25–128 μM
Procedure: as §1

AXL = AXL (Homo sapiens, UniProt P30530); experiment: SelectScreen kinase selectivity assay; conditions: ten-dose 0.25–128 μM
Sequence of AXL (P30530 26-894): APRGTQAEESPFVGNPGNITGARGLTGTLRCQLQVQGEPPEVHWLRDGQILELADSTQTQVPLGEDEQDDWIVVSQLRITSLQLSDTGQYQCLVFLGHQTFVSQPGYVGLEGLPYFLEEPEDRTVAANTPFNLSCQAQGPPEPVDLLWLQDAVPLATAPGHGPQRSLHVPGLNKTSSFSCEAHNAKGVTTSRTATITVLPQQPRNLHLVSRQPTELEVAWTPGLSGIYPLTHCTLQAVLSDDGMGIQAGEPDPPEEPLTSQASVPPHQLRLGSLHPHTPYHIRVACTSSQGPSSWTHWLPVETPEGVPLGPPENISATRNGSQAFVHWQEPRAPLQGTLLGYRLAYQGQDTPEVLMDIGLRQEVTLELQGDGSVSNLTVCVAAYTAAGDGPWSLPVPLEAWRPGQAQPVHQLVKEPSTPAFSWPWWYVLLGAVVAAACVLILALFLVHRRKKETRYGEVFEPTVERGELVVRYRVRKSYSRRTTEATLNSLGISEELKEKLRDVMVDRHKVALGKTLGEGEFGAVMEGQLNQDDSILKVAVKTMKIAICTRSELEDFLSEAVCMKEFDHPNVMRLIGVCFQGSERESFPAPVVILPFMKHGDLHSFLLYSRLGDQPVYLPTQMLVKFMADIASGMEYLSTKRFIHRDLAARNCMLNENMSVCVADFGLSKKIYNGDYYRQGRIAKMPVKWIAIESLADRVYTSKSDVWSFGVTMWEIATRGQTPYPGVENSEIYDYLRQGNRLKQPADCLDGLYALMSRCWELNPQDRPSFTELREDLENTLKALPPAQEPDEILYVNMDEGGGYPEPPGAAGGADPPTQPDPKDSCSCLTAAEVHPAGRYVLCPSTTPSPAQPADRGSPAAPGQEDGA
Procedure: as §1

BMX = BMX (Homo sapiens, UniProt P51813); experiment: SelectScreen kinase selectivity assay; conditions: ten-dose 0.25–128 μM
Procedure: as §1

CDK2 = CDK2 (Homo sapiens, UniProt P24941); experiment: SelectScreen kinase selectivity assay; conditions: ten-dose 0.25–128 μM
Procedure: as §1

PDGFRB = PDGFRB (Homo sapiens, UniProt P09619); experiment: SelectScreen kinase selectivity assay; conditions: ten-dose 0.25–128 μM
Procedure: as §1

FLT3-ITD = experiment: ADP-Glo kinase-inhibition assay; conditions: ratio of IC50 values vs Midostaurin
Procedure: Subsequently, the kinase detection reagent was added and incubated for an additional 15 min. Finally, the mixture was incubated for 1 h, and relative luminescence units (RLU) were measured.
Moreover, we extended the kinase selectivity profiling of FLIN-4 to evaluate its inhibitory activity against 60 non-target kinases.

Sequence of EPHA4 (P54764 20-986): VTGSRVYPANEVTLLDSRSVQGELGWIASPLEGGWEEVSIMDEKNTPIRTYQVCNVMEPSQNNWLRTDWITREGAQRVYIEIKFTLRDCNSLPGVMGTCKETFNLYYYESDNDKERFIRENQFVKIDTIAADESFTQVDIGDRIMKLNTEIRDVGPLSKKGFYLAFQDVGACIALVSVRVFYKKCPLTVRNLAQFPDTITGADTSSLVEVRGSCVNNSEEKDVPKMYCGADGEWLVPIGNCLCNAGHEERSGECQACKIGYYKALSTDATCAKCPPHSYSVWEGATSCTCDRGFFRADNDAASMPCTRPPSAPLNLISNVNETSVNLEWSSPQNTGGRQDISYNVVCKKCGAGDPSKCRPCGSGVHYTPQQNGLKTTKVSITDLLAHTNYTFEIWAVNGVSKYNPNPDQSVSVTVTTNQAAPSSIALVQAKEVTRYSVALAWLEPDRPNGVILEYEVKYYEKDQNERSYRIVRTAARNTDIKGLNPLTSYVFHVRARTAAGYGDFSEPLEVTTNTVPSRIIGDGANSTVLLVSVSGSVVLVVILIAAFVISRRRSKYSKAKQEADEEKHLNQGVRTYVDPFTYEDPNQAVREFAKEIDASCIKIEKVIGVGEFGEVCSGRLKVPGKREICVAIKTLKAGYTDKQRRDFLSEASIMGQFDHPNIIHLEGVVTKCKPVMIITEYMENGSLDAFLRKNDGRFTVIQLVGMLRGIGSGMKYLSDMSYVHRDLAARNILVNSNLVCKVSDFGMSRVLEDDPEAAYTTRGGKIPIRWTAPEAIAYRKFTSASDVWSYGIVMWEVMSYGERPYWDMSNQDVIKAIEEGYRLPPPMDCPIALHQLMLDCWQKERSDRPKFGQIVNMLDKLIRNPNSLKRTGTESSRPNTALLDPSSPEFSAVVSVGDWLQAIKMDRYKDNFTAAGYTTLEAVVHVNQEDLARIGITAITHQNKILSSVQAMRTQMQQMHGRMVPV

`CCc1nc(C(N)=O)c(Nc2ccc(N3CCC(Nc4ccccc4)CC3)c(OC)c2)nc1NC1CCOC(C(O)CO)C1` (centres unmarked) [FLIN-4] showed an IC50 (EPHA4) of over 10 µM, an IC50 (DDR2) of over 10 µM and an IC50 (MUSK) of over 10 µM. It also gave an IC50 (CSF1R) of over 10 µM, an IC50 (ROS1) of over 10 µM and an IC50 (YES1) of over 10 µM. For the same molecule, the IC50 (KIT) was over 10 µM, the IC50 (LYN) was over 10 µM and the IC50 (FGFR1) was over 10 µM. The IC50 (HCK) was over 10 µM, the IC50 (ZAK) was over 10 µM and the IC50 (PTK2) was over 10 µM. It also gave an IC50 (EPHB1) of over 10 µM, an IC50 (FRK) of over 10 µM and an IC50 (EPHB3) of over 10 µM. The IC50 (NTRK2) was over 10 µM, the IC50 (EPHA5) was over 10 µM and the IC50 (EPHA2) was over 10 µM. The IC50 (ABL2) was over 10 µM, the IC50 (FYN) was over 10 µM and the IC50 (NTRK1) was over 10 µM. For the same molecule, the IC50 (PDGFRA) was over 10 µM, the IC50 (EPHA8) was over 10 µM and the IC50 (IGF1R) was over 10 µM. It also gave an IC50 (AXL) of over 10 µM, an IC50 (BMX) of over 10 µM and an IC50 (CDK2) of over 10 µM. The IC50 (PDGFRB) was over 10 µM and the “FLT3-ITD inhibitory potency relative to Midostaurin” value (FLT3-ITD) was “approximately 27 times”.
